Biological target: T1, BCL-XL (Homo sapiens, UniProt Q07817)
T1 construct: endogenous in cells; host or cells: MOLT-4
Experiment: Bcl-xL ELISA degradation in MOLT-4 cells, 6 h
Assay type: cell-based
Conditions: for DC50: read-out: Bcl-xL ELISA in MOLT-4 degradation 6 h: Mean external-Abs DC50
Description: The letter codes for BCL-XL DC50 include: A (<0.01 μM); B (0.01-0.1 μM); C (>[…]); D (>0.5-1.0 μM); and E (>1.0 μM). The letter codes for Dmax % include A (>75%); B (50 to 75%); C (<50%).

T1 sequence (Q07817 whole entry): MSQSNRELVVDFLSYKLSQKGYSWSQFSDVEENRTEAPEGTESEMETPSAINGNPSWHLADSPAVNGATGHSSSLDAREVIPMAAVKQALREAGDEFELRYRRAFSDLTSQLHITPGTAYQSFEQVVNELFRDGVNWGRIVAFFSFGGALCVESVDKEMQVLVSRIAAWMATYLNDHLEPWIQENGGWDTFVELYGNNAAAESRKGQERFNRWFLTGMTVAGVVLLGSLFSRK

Dmax [%]	DC50 [nM]	Structure (SMILES)
< 50	–	Cc1ncsc1-c1ccc([C@H](C)NC(=O)[C@@H]2C[C@@H](O)CN2C(=O)[C@@H](NC(=O)N2CCC3(CCN(CC#Cc4ccc(OCCCc5sc(N6CCc7cccc(C(=O)Nc8nc9ccccc9s8)c7C6)nc5C(=O)O)c(F)c4)CC3)CC2)C(C)(C)C)cc1 [I-71]
< 50	–	Cc1ncsc1-c1ccc([C@H](C)NC(=O)[C@@H]2C[C@@H](O)CN2C(=O)[C@@H](NC(=O)N2CCN(CC#Cc3ccc(OCCCc4sc(N5CCc6cccc(C(=O)Nc7nc8ccccc8s7)c6C5)nc4C(=O)O)c(F)c3)CC2)C(C)(C)C)cc1 [I-73]
50 to 75	10 to 100	Cc1ncsc1-c1ccc(CNC(=O)[C@@H]2C[C@@H](O)CN2C(=O)[C@@H](NC(=O)C2(F)CC2)C(C)(C)C)c(OCCCC(=O)N2CCN(CC#Cc3ccc(OCCCc4sc(N5CCc6cccc(C(=O)Nc7nc8ccccc8s7)c6C5)nc4C(=O)O)c(F)c3)CC2)c1 [I-223]
50 to 75	10 to 100	Cc1ncsc1-c1ccc([C@H](C)NC(=O)[C@@H]2C[C@@H](O)CN2C(=O)[C@H](c2cc(N3CC4(CN(c5ccc(S(=O)(=O)NC(=O)c6nc(N7CCc8cccc(C(=O)Nc9nc%10ccccc%10s9)c8C7)ccc6-c6cnn(CC7CCCCC7)c6C)cc5)C4)C3)no2)C(C)C)cc1 [I-225]
< 50	> 1000	Cc1ncsc1-c1ccc(CNC(=O)[C@@H]2C[C@@H](O)CN2C(=O)[C@@H](NC(=O)C2(F)CC2)C(C)(C)C)c(OC2CCN(CC3CCN(C(=O)c4nc(N5CCc6cccc(C(=O)Nc7nc8ccccc8s7)c6C5)ccc4-c4cnn(CC5CCCCC5)c4C)CC3)CC2)c1 [I-227]
50 to 75	100 to 500	C#Cc1ccc([C@H](CO)NC(=O)[C@@H]2C[C@@H](O)CN2C(=O)C(c2cc(OC3CCN(CCCS(=O)(=O)NC(=O)c4nc(N5CCc6cccc(C(=O)Nc7nc8ccccc8s7)c6C5)ccc4-c4cnn(CC5CCCCC5)c4C)CC3)no2)C(C)C)cc1 (some centres unmarked) [I-228]
< 50	–	Cc1ncsc1-c1ccc([C@H](C)NC(=O)[C@@H]2C[C@@H](O)CN2C(=O)C(c2cc(OC3CCN(c4ccc(S(=O)(=O)NC(=O)c5nc(N6CCc7cccc(C(=O)Nc8nc9ccccc9s8)c7C6)ccc5-c5cnn(CC6CCCCC6)c5C)cc4)CC3)no2)C(C)C)cc1 (some centres unmarked) [I-231]
50 to 75	100 to 500	Cc1ncsc1-c1ccc([C@H](C)NC(=O)[C@@H]2C[C@@H](O)CN2C(=O)[C@@H](NC(=O)CCCCN(C)CCCS(=O)(=O)NC(=O)c2nc(N3CCc4cccc(C(=O)Nc5nc6ccccc6s5)c4C3)ccc2-c2cnn(CC3CCCCC3)c2C)C(C)(C)C)cc1 [I-232]
< 50	> 1000	Cc1ncsc1-c1ccc([C@H](C)NC(=O)[C@@H]2C[C@@H](O)CN2C(=O)C(c2cc(OC3CCN(CCCCNC(=O)c4nc(N5CCc6cccc(C(=O)Nc7nc8ccccc8s7)c6C5)ccc4-c4cnn(CC5CCCCC5)c4C)CC3)no2)C(C)C)cc1 (some centres unmarked) [I-233]
< 50	–	Cc1ncsc1-c1ccc([C@H](C)NC(=O)[C@@H]2C[C@@H](O)CN2C(=O)[C@H](c2cc(N3CC(N4CCC(NC(=O)c5nc(N6CCc7cccc(C(=O)Nc8nc9ccccc9s8)c7C6)ccc5-c5cnn(CC6CCCCC6)c5C)CC4)C3)no2)C(C)C)cc1 [I-235]
< 50	–	Cc1ncsc1-c1ccc([C@H](C)NC(=O)[C@@H]2C[C@@H](O)CN2C(=O)C(c2cc(N3CCC(CN4CCC(NC(=O)c5nc(N6CCc7cccc(C(=O)Nc8nc9ccccc9s8)c7C6)ccc5-c5cnn(CC6CCCCC6)c5C)CC4)CC3)no2)C(C)C)cc1 (some centres unmarked) [I-238]
< 50	–	Cc1ncsc1-c1ccc([C@H](C)NC(=O)[C@@H]2C[C@@H](O)CN2C(=O)C(c2cc(N3CC(CN4CCC(NC(=O)c5nc(N6CCc7cccc(C(=O)Nc8nc9ccccc9s8)c7C6)ccc5-c5cnn(CC6CCCCC6)c5C)CC4)C3)no2)C(C)C)cc1 (some centres unmarked) [I-239]
> 75	10 to 100	Cc1ncsc1-c1ccc([C@H](C)NC(=O)[C@@H]2C[C@@H](O)CN2C(=O)[C@@H](NC(=O)C2CCN(c3ccc(S(=O)(=O)NC(=O)c4nc(N5CCc6cccc(C(=O)Nc7nc8ccccc8s7)c6C5)ccc4-c4cnn(CC(C)C)c4C)cc3)CC2)C(C)(C)C)cc1 [I-240]
> 75	10 to 100	Cc1cc(N(C)c2ccc(-c3cnn(CC4CCCCC4)c3C)c(C(=O)NS(=O)(=O)c3ccc(N4CCC(C(=O)N[C@H](C(=O)N5C[C@H](O)C[C@H]5C(=O)N[C@@H](C)c5ccc(-c6scnc6C)cc5)C(C)(C)C)CC4)cc3)n2)nnc1Nc1nc2ccccc2s1 [I-244]
> 75	10 to 100	C#Cc1ccc([C@H](CO)NC(=O)[C@@H]2C[C@@H](O)CN2C(=O)[C@@H](NC(=O)C2CCN(c3ccc(S(=O)(=O)NC(=O)c4nc(N(C)c5cc(C)c(Nc6nc7ccccc7s6)nn5)ccc4-c4cnn(CC5(CC)CC6CC(C)CC(C6)C5)c4C)cc3)CC2)C(C)(C)C)cc1 (some centres unmarked) [I-245]
< 50	> 1000	Cc1ncsc1-c1ccc([C@H](C)NC(=O)[C@@H]2C[C@@H](O)CN2C(=O)[C@@H](NC(=O)N2CCC(N3CCN(C(=O)c4nc(N5CCc6cccc(C(=O)Nc7nc8ccccc8s7)c6C5)ccc4-c4cnn(CC5CCCCC5)c4C)CC3)CC2)C(C)(C)C)cc1 [I-247]

Dmax [%]	DC50 [nM]	Structure (SMILES)
> 75	10 to 100	Cc1ncsc1-c1ccc([C@H](C)NC(=O)[C@@H]2C[C@@H](O)CN2C(=O)[C@@H](NC(=O)C2CCN(c3ncc(S(=O)(=O)NC(=O)c4nc(N5CCc6cccc(C(=O)Nc7nc8ccccc8s7)c6C5)ccc4-c4cnn(CC5CCCCC5)c4C)cn3)CC2)C(C)(C)C)cc1 [I-250]
> 75	10 to 100	Cc1ncsc1-c1ccc(CNC(=O)[C@@H]2C[C@@H](O)CN2C(=O)[C@@H](NC(=O)C2CCN(c3ccc(S(=O)(=O)NC(=O)c4nc(N5CCc6cccc(C(=O)Nc7nc8ccccc8s7)c6C5)ccc4-c4cnn(CC5CCCCC5)c4C)cc3)CC2)C(C)(C)C)cc1 [I-252]
> 75	< 10	C#Cc1ccc([C@H](C)NC(=O)[C@@H]2C[C@@H](O)CN2C(=O)[C@@H](NC(=O)C2CCN(c3ccc(S(=O)(=O)NC(=O)c4nc(N5CCc6cccc(C(=O)Nc7nc8ccccc8s7)c6C5)ccc4-c4cnn(CC5CCCCC5)c4C)cc3)CC2)C(C)(C)C)cc1 [I-253]
> 75	< 10	C#Cc1ccc(CNC(=O)[C@@H]2C[C@@H](O)CN2C(=O)[C@@H](NC(=O)C2CCN(c3ccc(S(=O)(=O)NC(=O)c4nc(N5CCc6cccc(C(=O)Nc7nc8ccccc8s7)c6C5)ccc4-c4cnn(CC5CCCCC5)c4C)cc3)CC2)C(C)(C)C)c(OC)c1 [I-254]
50 to 75	100 to 500	Cc1ncsc1-c1ccc([C@H](C)NC(=O)[C@@H]2C[C@@H](O)CN2C(=O)[C@@H](NC(=O)C2CCN(c3ccc(S(=O)(=O)NC(=O)c4nc(N5CCc6cccc(C(=O)Nc7nc8ccccc8s7)c6C5)ccc4-c4cnn(CC5(CCC(=O)O)CCCCC5)c4C)cc3)CC2)C(C)(C)C)cc1 [I-255]
50 to 75	100 to 500	Cc1ncsc1-c1ccc([C@H](C)NC(=O)[C@@H]2C[C@@H](O)CN2C(=O)[C@@H](NC(=O)C2CCN(c3ccc(S(=O)(=O)NC(=O)c4nc(N5CCc6cccc(C(=O)Nc7nc8ccccc8s7)c6C5)ccc4-c4cnn(CC5(CCCN6CCN(C)CC6)CCCCC5)c4C)cc3)CC2)C(C)(C)C)cc1 [I-256]
50 to 75	100 to 500	Cc1ncsc1-c1ccc([C@H](C)NC(=O)[C@@H]2C[C@@H](O)CN2C(=O)[C@@H](NC(=O)N2CCC(N3CCC(S(=O)(=O)NC(=O)c4nc(N5CCc6cccc(C(=O)Nc7nc8ccccc8s7)c6C5)ccc4-c4cnn(CC5CCCCC5)c4C)CC3)CC2)C(C)(C)C)cc1 [I-258]
> 75	10 to 100	C#Cc1ccc(CNC(=O)[C@@H]2C[C@@H](O)CN2C(=O)[C@@H](NC(=O)C2CCN(c3ccc(S(=O)(=O)NC(=O)c4nc(N5CCc6cccc(C(=O)Nc7nc8ccccc8s7)c6C5)ccc4-c4cnn(CC5CCCCC5)c4C)cc3)CC2)C(C)(C)C)c(OCCO)c1 [I-259]
50 to 75	100 to 500	Cc1ncsc1-c1ccc([C@H](C)NC(=O)[C@@H]2C[C@@H](O)CN2C(=O)[C@@H](NC(=O)C2CCN(c3ccc(S(=O)(=O)NC(=O)c4nc(N5CCc6cccc(C(=O)Nc7nc8ccccc8s7)c6C5)ccc4-c4cnn(CC5CCOCC5)c4C)cc3)CC2)C(C)(C)C)cc1 [I-260]
> 75	10 to 100	Cc1ncsc1-c1ccc([C@H](C)NC(=O)[C@@H]2C[C@@H](O)CN2C(=O)[C@@H](NC(=O)N2CCN(c3ccc(S(=O)(=O)NC(=O)c4nc(N5CCc6cccc(C(=O)Nc7nc8ccccc8s7)c6C5)ccc4-c4cnn(CC5CCCCC5)c4C)cc3)CC2)C(C)(C)C)cc1 [I-261]
> 75	< 10	C#Cc1ccc(CNC(=O)[C@@H]2C[C@@H](O)CN2C(=O)[C@@H](c2cc(N3CCN(c4ccc(S(=O)(=O)NC(=O)c5nc(N6CCc7cccc(C(=O)Nc8nc9ccccc9s8)c7C6)ccc5-c5cnn(CC6CCCCC6)c5C)cc4)CC3)no2)C(C)C)cc1 [I-262]
50 to 75	10 to 100	C#Cc1ccc(CNC(=O)[C@@H]2C[C@@H](O)CN2C(=O)[C@@H](c2cc(N3CCN(c4ccc(S(=O)(=O)NC(=O)c5nc(N6CCc7cccc(C(=O)Nc8nc9ccccc9s8)c7C6)ccc5-c5cnn(CC6CCCCC6)c5C)cc4)CC3)no2)C(C)C)c(OC)c1 [I-263]
50 to 75	10 to 100	Cc1cc([C@@H](C(=O)N2C[C@H](O)C[C@H]2C(=O)NCc2ccc(-c3scnc3C)cc2OCCCCCCN(C)C(=O)c2nc(N3CCc4cccc(C(=O)Nc5nc6ccccc6s5)c4C3)ccc2-c2cnn(CC3CCCCC3)c2C)C(C)C)on1 [I-264]
50 to 75	100 to 500	Cc1cc([C@@H](C(=O)N2C[C@H](O)C[C@H]2C(=O)NCc2ccc(-c3scnc3C)cc2OCCN(C)C2CCN(C(=O)c3nc(N4CCc5cccc(C(=O)Nc6nc7ccccc7s6)c5C4)ccc3-c3cnn(CC4CCCCC4)c3C)CC2)C(C)C)on1 [I-266]
< 50	> 1000	Cc1cc([C@@H](C(=O)N2C[C@H](O)C[C@H]2C(=O)NCc2ccc(-c3scnc3C)cc2OCCN2CCN(C(=O)c3nc(N4CCc5cccc(C(=O)Nc6nc7ccccc7s6)c5C4)ccc3-c3cnn(CC4CCCCC4)c3C)CC2)C(C)C)on1 [I-267]

From patent US20250197387A1, “BCL-XL DEGRADERS AND USES THEREOF” (Kymera Therapeutics, Inc., priority 2021, published 2025)
